From ChEMBL document CHEMBL1201862, “PubChem BioAssay data set” (2004)
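Interpolation was linear, between the two tested concentrations surrounding the appropriate level; five concentrations were tested over 48 hours in 96-well plates. GI50 = concentration required for 50% inhibition of growth.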 Calls of active or inactive are those of the source. No stated cut-off is given here; in the data, active = GI50 up to about 1.1 µM and inactive = higher.

How the values were obtained:
Experiment in all cases: NCI-60 cell line screen, 48 h
DU-145 = test system: DU-145
LOX IMVI = test system: LOX IMVI
SK-MEL-28 = test system: SK-MEL-28
SR = test system: SR
SK-MEL-5 = test system: SK-MEL-5
A549 = test system: A549
786-0 = test system: 786-0
U-251 = test system: U-251
UO-31 = test system: UO-31
OVCAR-4 = test system: OVCAR-4
T47D = test system: T47D
SF-268 = test system: SF-268
Malme-3M = test system: Malme-3M
MDA-MB-435 = test system: MDA-MB-435
CCRF-CEM = test system: CCRF-CEM
OVCAR-8 = test system: OVCAR-8
HT-29 = test system: HT-29
SK-OV-3 = test system: SK-OV-3
SN12C = test system: SN12C
MDA-N = test system: MDA-N
RPMI-8226 = test system: RPMI-8226
TK-10 = test system: TK-10
HOP-92 = test system: HOP-92
SK-MEL-2 = test system: SK-MEL-2
SNB-75 = test system: SNB-75
IGROV-1 = test system: IGROV-1
KM12 = test system: KM12
HCT-15 = test system: HCT-15
A498 = test system: A498
UACC-257 = test system: UACC-257
MDA-MB-231 = test system: MDA-MB-231
HCT-116 = test system: HCT-116
NCI/ADR-RES = test system: NCI/ADR-RES
Hs-578T = test system: Hs-578T
NCI-H522 = test system: NCI-H522
NCI-H226 = test system: NCI-H226
M14 = test system: M14
COLO 205 = test system: COLO 205
UACC-62 = test system: UACC-62
EKVX = test system: EKVX
OVCAR-5 = test system: OVCAR-5
SF-539 = test system: SF-539
PC-3 = test system: PC-3
MCF7 = test system: MCF7
K562 = test system: K562
HOP-62 = test system: HOP-62
SF-295 = test system: SF-295
NCI-H23 = test system: NCI-H23
OVCAR-3 = test system: OVCAR-3
BT-549 = test system: BT-549
SW-620 = test system: SW-620
CAKI-1 = test system: CAKI-1
HL-60 = test system: HL-60

Measured: GI50

CCCCn1c2c(c3ccccc3c1=O)C(=O)c1ccccc1-2
> 100 µM: HCT-15
inactive: DU-145 34.5 µM | LOX IMVI > 100 µM | SK-MEL-28 > 100 µM | SR 1.82 µM | SK-MEL-5 5.98 µM | A549 25 µM | 786-0 25.3 µM | U-251 66.1 µM | UO-31 2.79 µM | OVCAR-4 1.82 µM | T47D 16.2 µM | SF-268 29 µM | Malme-3M > 100 µM | MDA-MB-435 > 100 µM | CCRF-CEM > 100 µM | OVCAR-8 > 100 µM | HT-29 13.3 µM | SK-OV-3 > 100 µM | SN12C > 100 µM | MDA-N > 100 µM | RPMI-8226 > 100 µM | TK-10 62.4 µM | HOP-92 > 100 µM | SK-MEL-2 > 100 µM | SNB-75 37.2 µM | IGROV-1 76.7 µM | KM12 > 100 µM | A498 > 100 µM | UACC-257 > 100 µM | MDA-MB-231 94 µM | HCT-116 > 100 µM | NCI/ADR-RES > 100 µM | Hs-578T 33.7 µM | NCI-H522 37.8 µM | NCI-H226 > 100 µM | M14 > 100 µM | COLO 205 20.4 µM | UACC-62 > 100 µM | EKVX > 100 µM | OVCAR-5 > 100 µM | SF-539 49.1 µM | PC-3 > 100 µM | MCF7 15 µM | K562 > 100 µM | HOP-62 19.9 µM | SF-295 37.8 µM | NCI-H23 45.2 µM | OVCAR-3 > 100 µM | BT-549 > 100 µM | SW-620 > 100 µM | CAKI-1 25.9 µM | HL-60 4.28 µM
